In patent publication US8193195B2, “Polymorphic forms of 1-'4-(5-cyanoindol-3-yl) butyl-4-(2-carbamoylbenzofuran-5-yl) piperazine hydrochloride” (Merck Patentgesellschaft, priority 2001, dated 2012):
Read-outs that look alike come from different tables or passages of the source.

Tests used:
[1] = Solubility via potentiometric titration (pSOL solubility profiler); type: physicochemical; settings: for Solubility data: hydrochloride; for solubility: water, thermodynamic from solid
Experimental: Solubility data of Forms II, III, IV, V, VI and VIII are measured according to Alex Avdeef et al, Pharm. Pharmacol. Commun.
The pSOLTM solubility profiler, automatically collects potentiometric data, calculates the pH-solubility profiles, and prints the values at 0.1 pH unit intervals. Intrinsic solubilities in the milli-, micro- and nanogram levels can be determined. Also presented are two new concepts, the Flux Factor Profile and Dose Limit Profile. Both concepts follow the guidelines consistent with the BioPharmaceutics Classification Scheme.

[2] = Thermodynamic stability of the forms, energy/temperature diagram (FIG. 27); type: physicochemical
From the text: FIG. 27 is an energy/temperature diagram of Forms III, IV and VII

For `Cl.N#Cc1ccc2[nH]cc(CCCCN3CCN(c4ccc5oc(C(N)=O)cc5c4)CC3)c2c1` [Form I, 1-[4-(5-cyanoindol-3-yl)butyl]-4-(2-carbamoyl-benzofuran-5-yl)-piperazine hydrochloride], which Solubility data ([1]; potentiometric titration according to Avdeef et al., listed as I) is on record?
Its Solubility data is 0.08 µg/mL.

For `Cl.N#Cc1ccc2[nH]cc(CCCCN3CCN(c4ccc5oc(C(N)=O)cc5c4)CC3)c2c1` [Form II, 1-[4-(5-cyanoindol-3-yl)butyl]-4-(2-carbamoyl-benzofuran-5-yl)-piperazine hydrochloride], which Solubility data ([1]; potentiometric titration according to Avdeef et al., listed as II) is on record?
Its Solubility data is 0.03 µg/mL.

Which results are given for `Cl.N#Cc1ccc2[nH]cc(CCCCN3CCN(c4ccc5oc(C(N)=O)cc5c4)CC3)c2c1` [Form III, 1-[4-(5-cyanoindol-3-yl)butyl]-4-(2-carbamoyl-benzofuran-5-yl)-piperazine hydrochloride]?
Solubility data ([1]; potentiometric titration according to Avdeef et al., listed as III): 0.12 µg/mL; relative (thermodynamic) stability of the form at room temperature ([2]; room temperature): the most stable form at room temperature

Which Solubility data ([1]; potentiometric titration according to Avdeef et al., listed as IV) does the source give for `Cl.N#Cc1ccc2[nH]cc(CCCCN3CCN(c4ccc5oc(C(N)=O)cc5c4)CC3)c2c1` [Form IV, 1-[4-(5-cyanoindol-3-yl)butyl]-4-(2-carbamoyl-benzofuran-5-yl)-piperazine hydrochloride] here?
The Solubility data was 0.33 µg/mL.

And the solubility ([1]; in water, read-out: solubility in water)?
Its solubility is 0.328 µg/mL.

And the “relative stability of the form at higher temperatures” value ([2]; higher temperatures, e.g. >100° C.)?
Its value is “the most stable form at higher temperatures”.

With `Cl.N#Cc1ccc2[nH]cc(CCCCN3CCN(c4ccc5oc(C(N)=O)cc5c4)CC3)c2c1.O` [Form V, 1-[4-(5-cyanoindol-3-yl)butyl]-4-(2-carbamoyl-benzofuran-5-yl)-piperazine hydrochloride monohydrate] as the molecule, how does the solubility ([1]; potentiometric titration according to Avdeef et al., read-out: Solubility data) read?
The solubility was 0.18 µg/mL.

Which Solubility data ([1]; potentiometric titration according to Avdeef et al., listed as VI) does the source give for `Cl.N#Cc1ccc2[nH]cc(CCCCN3CCN(c4ccc5oc(C(N)=O)cc5c4)CC3)c2c1` [Form VI, 1-[4-(5-cyanoindol-3-yl)butyl]-4-(2-carbamoyl-benzofuran-5-yl)-piperazine hydrochloride] here?
The Solubility data was 0.23 µg/mL.
